Laboratory results as given in US7419790B2, “Sodium-independent transporter carrying acidic amino acid and its gene” (J-Pharma Co., Ltd, priority 2002, dated 2008).
Each block holds one molecule with its values, some of them ahead of it.

Legend:
[1] = biological target: T1, AGT1-4F2hc fusion protein (Mus musculus, UniProt P10852+Q91WN3); assay: Inhibition of 14C-aspartic acid uptake by added amino acids and analogues, oocytes expressing AGT1-4F2hc; type: cell-based; settings: 2 mM non-labeled compound, 14C-aspartic acid 20 μM, sodium-free uptake solution
T1 sequence (Q91WN3+P10852 with tags, fused parts or gaps): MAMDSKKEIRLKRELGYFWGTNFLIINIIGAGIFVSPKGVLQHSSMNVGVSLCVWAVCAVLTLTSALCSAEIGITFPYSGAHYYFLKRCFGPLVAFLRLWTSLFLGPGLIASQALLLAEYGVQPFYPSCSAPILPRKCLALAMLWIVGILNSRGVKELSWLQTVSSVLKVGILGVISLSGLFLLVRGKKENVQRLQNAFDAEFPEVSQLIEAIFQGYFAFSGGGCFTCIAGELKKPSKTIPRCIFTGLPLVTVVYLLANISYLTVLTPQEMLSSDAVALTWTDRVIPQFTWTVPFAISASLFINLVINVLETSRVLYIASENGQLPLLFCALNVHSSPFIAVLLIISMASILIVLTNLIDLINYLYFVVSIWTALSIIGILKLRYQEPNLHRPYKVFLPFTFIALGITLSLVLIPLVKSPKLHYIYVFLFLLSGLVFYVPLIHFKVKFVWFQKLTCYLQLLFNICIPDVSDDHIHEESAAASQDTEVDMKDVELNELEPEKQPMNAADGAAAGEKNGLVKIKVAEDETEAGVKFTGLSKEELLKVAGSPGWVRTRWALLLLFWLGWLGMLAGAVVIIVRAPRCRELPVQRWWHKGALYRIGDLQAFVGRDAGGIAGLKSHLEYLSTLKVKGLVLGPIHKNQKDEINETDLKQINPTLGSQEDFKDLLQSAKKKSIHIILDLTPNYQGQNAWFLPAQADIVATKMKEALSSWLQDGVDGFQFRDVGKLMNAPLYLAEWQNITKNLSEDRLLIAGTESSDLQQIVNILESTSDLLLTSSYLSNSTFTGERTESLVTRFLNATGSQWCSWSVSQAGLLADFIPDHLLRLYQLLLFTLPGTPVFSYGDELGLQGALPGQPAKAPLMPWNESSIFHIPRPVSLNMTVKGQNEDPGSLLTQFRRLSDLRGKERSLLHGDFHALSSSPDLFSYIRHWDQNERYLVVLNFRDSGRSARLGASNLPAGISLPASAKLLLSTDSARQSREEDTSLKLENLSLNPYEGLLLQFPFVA
Protocol: However, a sodium-free uptake solution was used and the uptake ^14C-aspartic acid (20 μM) was measured in the presence and absence of 2 mM of various compounds (non-labeled).

[2] = biological target: T1, AGT1-4F2hc fusion protein; assay: Uptake of radio-labeled amino acids by oocytes expressing AGT1-4F2hc; type: cell-based; settings: oocyte injected with AGT1-4F2hc cRNA, 14C compound as substrate
Description: With regard to a substrate, various compounds which were labeled with radioactivity were used instead of ^14C-aspartic acid.

[3] = biological target: T2, AGT1-rBAT fusion protein (Mus musculus, UniProt Q91WN3+Q91WV7); assay: Uptake of 14C-aspartic acid by oocytes expressing AGT1-rBAT; type: cell-based; settings: oocyte injected with AGT1-rBAT cRNA; 14C-aspartic acid 20 μM, 30 minutes, compared with water-injected control
T2 construct: expressed in transfected cells; host or cells: oocyte injected with AGT1-rBAT fusion protein gene cRNA
T2 sequence (Q91WN3+Q91WV7 with tags, fused parts or gaps): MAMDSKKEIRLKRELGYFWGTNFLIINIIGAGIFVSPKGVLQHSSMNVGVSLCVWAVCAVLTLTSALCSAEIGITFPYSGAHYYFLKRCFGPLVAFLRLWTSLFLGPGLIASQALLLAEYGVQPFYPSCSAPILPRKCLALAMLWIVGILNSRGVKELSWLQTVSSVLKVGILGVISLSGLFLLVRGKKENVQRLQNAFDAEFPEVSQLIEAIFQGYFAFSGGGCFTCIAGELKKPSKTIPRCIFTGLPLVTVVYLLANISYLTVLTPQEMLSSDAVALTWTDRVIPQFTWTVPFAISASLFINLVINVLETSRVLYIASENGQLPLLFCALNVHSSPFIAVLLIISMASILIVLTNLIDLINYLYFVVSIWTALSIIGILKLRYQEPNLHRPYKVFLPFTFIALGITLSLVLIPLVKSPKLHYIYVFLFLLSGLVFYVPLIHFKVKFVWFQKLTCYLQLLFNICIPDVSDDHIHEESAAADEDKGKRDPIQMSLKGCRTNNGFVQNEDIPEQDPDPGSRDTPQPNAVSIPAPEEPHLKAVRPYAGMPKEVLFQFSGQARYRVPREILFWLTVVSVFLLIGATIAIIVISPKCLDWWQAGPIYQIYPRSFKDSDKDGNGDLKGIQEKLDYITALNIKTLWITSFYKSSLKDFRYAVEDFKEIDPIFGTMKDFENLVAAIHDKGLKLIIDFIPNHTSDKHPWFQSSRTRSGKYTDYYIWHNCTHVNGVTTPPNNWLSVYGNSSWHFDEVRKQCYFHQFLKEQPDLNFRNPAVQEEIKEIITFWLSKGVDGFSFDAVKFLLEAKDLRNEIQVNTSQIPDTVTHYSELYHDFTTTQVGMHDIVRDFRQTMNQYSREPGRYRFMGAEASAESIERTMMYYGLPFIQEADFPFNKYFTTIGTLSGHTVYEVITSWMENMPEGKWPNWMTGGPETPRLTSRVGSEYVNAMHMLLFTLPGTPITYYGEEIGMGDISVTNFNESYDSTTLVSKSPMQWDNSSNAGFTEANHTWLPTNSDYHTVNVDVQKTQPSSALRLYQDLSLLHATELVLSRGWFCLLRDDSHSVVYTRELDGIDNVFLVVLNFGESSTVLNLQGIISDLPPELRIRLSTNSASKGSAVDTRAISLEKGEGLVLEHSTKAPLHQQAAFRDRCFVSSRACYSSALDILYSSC

[4] = biological target: T1, AGT1-4F2hc fusion protein; assay: Michaelis-Menten kinetic analysis of substrate uptake by oocytes expressing AGT1-4F2hc; settings: AGT1-4F2hc in oocytes; ratio to Vmax value of L-aspartic acid; mean value ± standard error
Protocol: (§1) The oocyte were allowed to stand for 30 minutes in a sodium-free uptake solution (100 mM choline chloride, 2 mM potassium chloride, 1.8 mM calcium chloride, 1 mM magnesium chloride and 5 mM HEPES; pH 7.4) containing ^14 C-aspartic acid (20 μM) as a substrate and an uptake rate of the substrate was measured by the count of radioactivity incorporated into the cells.
(§2) The Michaelis-Menten kinetic analysis was conducted by investigating the change in the ratio of uptake of aspartic acid by the difference in the substrate aspartic acid concentration.
(§3) The aspartic acid uptake experiment was carried according to the method mentioned in the above Example 2(2) using the oocyte into which a cRNA of a gene of a fusion protein of AGT1 with 4F2hc or with rBAT (AGT1-4F2hc or AGT1-rBAT) was injected.
(§4) The Michaelis-Menten kinetic analysis was similarly carried out in a fusion protein of AGT1 with 4F2hc (AGT1-4F2hc) in glutamic acid and Km value and Vmax value were calculated.

[5] = tested on: N[C@@H](CCC(=O)O)C(=O)O; assay: cells, lysate or membranes; settings: other: substrate transport by AGT1-4F2hc in Xenopus oocytes, sodium-free uptake solution; mean value ± standard error; pH 7.4
Protocol: as §1, §2, §3, §4

[6] = substrate: N[C@@H](CC(=O)O)C(=O)O; assay: cells, lysate or membranes; settings: other: AGT1-rBAT in Xenopus oocytes; pH 7.4

Molecule: O=C(O)[C@@H]1CN[C@@H](C(=O)O)C1 (relative stereo) [L-trans-pyrrolidine-2,4-dicarboxylate]
effect on uptake of 14C-aspartic acid mediated by AGT1-4F2hc (cis-inhibition) [1]: no inhibition effect

effect on uptake of 14C-aspartic acid mediated by AGT1-4F2hc (cis-inhibition) [1]: did no affect
Molecule: NC1(C(=O)O)CC2CCC1C2 (stereo not drawn) [2-amino-2-norbornane-carboxylic acid]

effect on uptake of 14C-aspartic acid mediated by AGT1-4F2hc (cis-inhibition) [1]: did no affect
Molecule: N[C@H](CC(=O)O)C(=O)O [D-aspartic acid]

Molecule: N[C@H](CCC(=O)O)C(=O)O [D-glutamic acid]
effect on uptake of 14C-aspartic acid mediated by AGT1-4F2hc (cis-inhibition) [1]: did no affect

effect on uptake of 14C-aspartic acid mediated by AGT1-4F2hc (cis-inhibition) [1]: significant cis-inhibiting effect | uptake of radio-labeled substrate into the oocyte ([2]; listed as L-aspartic acid): substantial uptake | uptake of radio-labeled substrate into the oocyte ([2]; listed as aspartic acid): higher uptake | uptake of aspartic acid into the oocyte [3]: higher uptake | Vmax [4]: (1.00)
Molecule: N[C@@H](CC(=O)O)C(=O)O [L-Aspartic acid]

Molecule: N[C@@H](CCC(=O)O)C(=O)O [L-Glutamic acid]
effect on uptake of 14C-aspartic acid mediated by AGT1-4F2hc (cis-inhibition) [1]: significant cis-inhibiting effect | uptake of radio-labeled substrate into the oocyte [2]: substantial uptake | Vmax [4]: 0.63 ± 0.10

Molecule: N[C@@H](CS(=O)(=O)O)C(=O)O [L-cysteate]
effect on uptake of 14C-aspartic acid mediated by AGT1-4F2hc (cis-inhibition) [1]: strongly inhibited

effect on uptake of 14C-aspartic acid mediated by AGT1-4F2hc (cis-inhibition) [1]: strongly inhibited
Molecule: N[C@@H](CS)C(=O)O.O=S(=O)(O)O [L-cysteine sulfate]

Molecule: N[C@@H](CCS(=O)(=O)O)C(=O)O [L-homocysteate]
effect on uptake of 14C-aspartic acid mediated by AGT1-4F2hc (cis-inhibition) [1]: no inhibition effect

Molecule: N[C@@H](COS(=O)(=O)O)C(=O)O [L-serine-O-sulfate]
effect on uptake of 14C-aspartic acid mediated by AGT1-4F2hc (cis-inhibition) [1]: strongly inhibited

Molecule: N[C@@H](CCCC(=O)O)C(=O)O [L-α-aminoadipate]
effect on uptake of 14C-aspartic acid mediated by AGT1-4F2hc (cis-inhibition) [1]: no inhibition effect

effect on uptake of 14C-aspartic acid mediated by AGT1-4F2hc (cis-inhibition) [1]: significant cis-inhibiting effect
Molecule: N[C@@H](CS)C(=O)O [cysteine]

effect on uptake of 14C-aspartic acid mediated by AGT1-4F2hc (cis-inhibition) [1]: did no affect
Molecule: N[C@@H](CSSC[C@H](N)C(=O)O)C(=O)O [cystine]

Molecule: CC(C)[C@H]1CN[C@H](C(=O)O)[C@H]1CC(=O)O [dihydrokainate]
effect on uptake of 14C-aspartic acid mediated by AGT1-4F2hc (cis-inhibition) [1]: no inhibition effect

effect on uptake of 14C-aspartic acid mediated by AGT1-4F2hc (cis-inhibition) [1]: strongly inhibited
Molecule: NC(C(=O)O)C(O)C(=O)O (stereo not drawn) [threo-β-hydroxyaspartate]

Molecule: AGT1-4F2hc fusion protein (Mus musculus)
Km [5]: 21.8 ± 6.5 µM

effect on uptake of 14C-aspartic acid mediated by AGT1-4F2hc (cis-inhibition) [1]: did no affect
Molecule: γ-aminoisobutyric acid

B1: AGT1-rBAT fusion protein (Mus musculus) (protein)
chain: T2 sequence (Q91WN3+Q91WV7 with tags, fused parts or gaps)
Km [6]: 20.1 ± 6.1 µM
